The values below come from ChEMBL document CHEMBL3351913, “Malonate-based inhibitors of mammalian serine racemase: kinetic characterization and structure-based computational study” (Eur J Med Chem, 2015).

The target of test [1] is T1, Serine racemase (Mus musculus, UniProt Q9QZX7).
T1 sequence (Q9QZX7 whole entry): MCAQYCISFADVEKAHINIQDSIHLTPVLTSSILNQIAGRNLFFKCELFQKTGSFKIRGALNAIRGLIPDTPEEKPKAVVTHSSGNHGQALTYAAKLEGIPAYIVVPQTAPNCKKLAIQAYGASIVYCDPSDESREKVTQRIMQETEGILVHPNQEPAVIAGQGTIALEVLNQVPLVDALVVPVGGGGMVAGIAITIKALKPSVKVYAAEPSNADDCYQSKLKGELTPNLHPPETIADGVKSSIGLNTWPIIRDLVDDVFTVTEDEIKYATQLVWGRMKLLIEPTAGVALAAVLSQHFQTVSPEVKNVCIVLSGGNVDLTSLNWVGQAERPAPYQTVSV
Put plainly: Inhibition of mouse serine racemase using L-serine substrate by reversed-phase HPLC analysis.

In test [2] the target is T1, Serine racemase. Put plainly: Inhibition of mouse serine racemase by Lineweaver-Burk plot.

The structures appear in SMILES notation.

In test [1], `O=C(O)C(O)C(=O)O` yielded an IC50 of 94 µM.
Turning to `NC(C(=O)O)C(=O)O`, the IC50 in test [1] came to 400 µM. Against the preceding molecule, the IC50 is about 4.3-fold higher.
The molecule `O=C(O)C(Cl)(Cl)C(=O)O` showed a Ki in test [2] of 19 µM. For the same molecule, the midpoint of inhibition in test [1], the IC50, lay at 57 µM.
`O=C(O)C(Cl)C(=O)O` returned an IC50 in test [1] of 780 µM.
`O=C(O)C(F)(F)C(=O)O` registered an IC50 in test [1] of 2160 µM. Against the preceding molecule, the IC50 is about 2.8-fold higher.
For `CC(C)(C(=O)O)C(=O)O`, in test [1], the IC50 was found to be 5630 µM.
Molecule `O=C(O)C(C(=O)O)c1ccsc1` had a concentration for half-maximal inhibition (IC50) in test [1] of 7030 µM.
Take `O=C(O)C(CO)(CO)C(=O)O`: in test [1], the half-inhibitory concentration (IC50) came to 40600 µM.
In test [2], `O=C(O)CC(=O)O` [MALONIC ACID] had a Ki of 27 µM. This molecule showed an IC50 in test [1] of 67 µM.
`CC(C(=O)O)C(=O)O` [METHYLMALONIC ACID] registered an IC50 in test [1] of 1850 µM.
